Laboratory results from patent EP3052475B1, “PHARMACEUTICAL USE OF 3-BENZYLSULFONYLPROPIONITRILE” (Olatec Therapeutics LLC, priority 2013, dated 2015).

What was measured:
[1] = system: tail flick reaction to heat; experiment: tail flick test in mice (49°C water bath); type: in vivo
Method: The tail flick test is a test of the pain response in animals. The tail flick test is used in basic pain research and to measure the effectiveness of analgesics, by observing the tail flick reaction to heat in an animal. This test assesses the nociceptive response to a local pain stimulus, and the ability of a drug to inhibit this response. […] The test compound was administered at a dosage of 500 mg/kg in DMSO. […] Each group had 10 mice. The response of mice to heat stimulus was evaluated by measuring the time of tail-flick or tail-flick latency from 49°C water bath. Briefly, the animal was held with its tail hanging down. Approximately 2 inches of the tail was immersed in a beaker of water at 38±1 °C for about 30 seconds, and this was done twice to acclimate the animal to the procedure. Subsequently, approximately 2 inches of the tail was immersed in a beaker of water at 49±1°C, at which point a timer was started. […] An ANOVA was done, and if p<0.05, a Dunnett's t test was employed to calculate significant difference between vehicle control and test compound treated groups. […] Results of tail flick response from each group are calculated as mean ± SEM (standard error of mean).

[2] = system: arachidonic acid-induced ear swelling; experiment: topical arachidonic acid-induced ear swelling model in mice; type: in vivo, Male ICR mice; settings: inhibition of ear swelling vs vehicle, measured at 90 minutes after arachidonic acid application; topical application 30 min before and 15 min after arachidonic acid; indomethacin 14 mM (0.1 mg/20 µL, n=5), test compound 375 mM (1.0 mg/20 µL, n=10); P <0.001
Method: 3-Benzylsulfonylpropionitrile, prepared from Example 1, was used in this experiment.
The test compound, indomethacin (positive control), and vehicle were evaluated for anti-inflammatory activity in a topical arachidonic acid-induced ear swelling model in mice.
Male ICR mice weighing 22 ± 2 g were used and randomly divided; the test compound and vehicle control had 10 mice, and indomethacin had 5 mice. Arachidonic Acid (0.5 mg in 20 µl of acetone:ethanol/1:1) was applied topically to the anterior and posterior surfaces of the right ear of each mice. Test substances and vehicle, as listed in Table 1 were similarly applied 30 min before and 15 min after arachidonic acid application. The thickness of the right ear and the left ear was measured and the difference calculated as an indication of the inflammation in the right ear. Ear swelling was measured by a Dyer model micrometer gauge at 60 and 90 minutes after arachidonic acid application as an index of inflammation. Percent inhibition was calculated according to the formula: Ic - It/Ic x 100, where Ic and It refers to increase of ear thickness (mm) in control and treated mice, respectively. ANOVA and Dunnett's test were employed to ascertain significant difference between vehicle control and treated groups. Significance is set at P<0.05 level.

Compound | tail flick latency compared with vehicle-treated mice ([1]; mouse, in vivo) | % Inhibition [2] [%] | tail flick latency compared with vehicle-treated mice ([1]; 500 mg/kg in DMSO, oral gavage, measured at 30, 60 and 120 minutes post dosing, n=10, significance p<0.05)
CN1CC[C@]23c4c5ccc(O)c4O[C@H]2[C@@H](O)C=C[C@H]3[C@H]1C5 [morphine, reference compound] | statistically significant tail flick latency at 30 and 60 minutes, but not 120 minutes |  | 
N#CCCS(=O)(=O)Cc1ccccc1 [3-Benzylsulfonylpropionitrile, 3-benzylsulfonylpropionitrile] |  | 35 | statistically significant tail flick latency at 30, 60, and 120 minutes
